This note sets out measurements from article PMC10396970, “Metal-dependent enzyme symmetry guides the biosynthetic flux of terpene precursors” (Nature Chemistry, 2023).

The target in assay [1] is T1, PcIDS1 (Phaedon cochleariae, UniProt M1JS91).
T1 construct: N-terminal signal peptide (residues 1-85) removed; N-terminal His6-SUMO tag cut with Ulp1; E. coli BL21(DE3); homodimer; C-terminal residue A429
T1 sequence (M1JS91 86-429): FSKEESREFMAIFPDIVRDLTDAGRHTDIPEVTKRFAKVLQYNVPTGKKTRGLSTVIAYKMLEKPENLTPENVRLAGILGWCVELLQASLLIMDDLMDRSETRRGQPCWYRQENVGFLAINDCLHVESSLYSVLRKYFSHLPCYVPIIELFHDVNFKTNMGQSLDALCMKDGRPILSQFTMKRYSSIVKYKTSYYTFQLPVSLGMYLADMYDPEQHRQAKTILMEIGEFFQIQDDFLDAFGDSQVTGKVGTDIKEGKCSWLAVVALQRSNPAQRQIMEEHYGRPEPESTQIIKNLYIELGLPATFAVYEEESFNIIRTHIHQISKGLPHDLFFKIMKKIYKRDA
In words: thermal shift assay (Sypro Orange). As to conditions: 5 mM MgCl2, pH 7.0. The assay is classed as binding.

In assay [2] the target is T1, PcIDS1. The experiment in a line: crystal structure. It counts as binding.

Molecules are shown by their SMILES.

With `O=P(O)(O)C(O)(Cn1ccnc1)P(=O)(O)O` [ZOL, zoledronic acid], the dTm on PcIDS1 [1] (200 µM ligand, allylic site) is 28 °C.
Regarding `C=C(C)CCOP(=O)(O)OP(=O)(O)O` [IPP, isopentenyl pyrophosphate], on PcIDS1 [1] (allylic and homoallylic sites), the dTm came to 7 °C.
In the case of `CC(C)=CCC/C(C)=C/COP(=O)(O)OP(=O)(O)O` [GPP, geranyl pyrophosphate], the crystal structure entry on PcIDS1 [2] (Mn2+, second site, allosteric) is reported as “contains well-defined electron density for a second GPP molecule (GPPAllo; Fig. 3h)”. In addition, at PcIDS1 [1] (allylic site in the structure), the dTm amounted to 17 °C.
Turning to `CC(C)=CCC/C(Br)=C/COP(=O)(O)OP(=O)(O)O` [3-Br-GPP], at PcIDS1 [2] (Mg2+, IPP added but not bound, allylic site), the crystal structure is on record as 3-Br-GPP mimics GPPAl coordination.
In the case of `CC(C)=CCC/C(C)=C/CC/C(C)=C/COP(=O)(O)OP(=O)(O)O` [FPP, farnesyl pyrophosphate], on PcIDS1 [1], the dTm turned out to be 7 °C.
